# Experimental data: patent EP4628074A1, “N-PALMITOYLETHANOLAMIDE FOR USE IN COMBINATION WITH A NON-STEROIDAL ANTI-INFLAMMATORY DRUG IN THE TREATMENT OF INFLAMMATORY PAIN” (priority 2024, dated 2025)
# Experiments:
# [1] = system: inflammatory pain induced by CFA; assay: Incapacitance test (spontaneous pain), CFA-induced inflammatory pain, chronic (14 days) oral treatment (Experiment 4); type: in vivo, male Sprague-Dawley rats; conditions: 2x2 ANOVA on percentage inhibition of spontaneous pain, interaction line = synergy
# Description: The inflammatory pain model was induced by injecting Complete Freund's Adjuvant (CFA, Sigma-Aldrich) into the tibiotarsal joint of male Sprague-Dawley rats (Charles River), housed in 26x41 cm cages at the Animal Husbandry Centre. Laboratory Animals (Ce.S.A.L.) of the University of Florence with a 12-hour circadian cycle, water and food (standard diet) "ad libitum", temperature of 23±1°C. Intra-articular injection occurred according to the method described by Butler et al. (Pain 48:73-81,1992) after light anesthesia with 2% isoflurane. The skin surrounding the injection site was sterilized with 75% ethyl alcohol. Then a 28-gauge needle was inserted into the joint cavity, through which a volume of 50 µl of CFA was injected. The animals were then divided into the following treatment groups (N = 8): • Sham (control, a volume of physiological solution equal to that used for CFA animals was injected into the tibiotarsal joint) • Vehicle (CMC 1%) • Diclofenac (3 mg/kg) • Diclofenac (30 mg/kg) • PEA (10 mg/kg) • PEA-OXA (10 mg/kg) [formula] [formula] [formula] [formula]
# The tested molecules - used both individually and in combination - were suspended in 1% CMC and administered orally daily from day 1 to day 14 (chronic treatment). […] Behavioral tests were conducted 24 hours after the last administration, in order to highlight the effect of repeated treatment on joint pain. Inflammatory pain induced by CFA injection was measured by paw pressure test. […] The nociceptive threshold has been expressed as the force to which the animal reacts by retracting its paw or vocalizing (Leighton et al., Br J Pharmacol 93:553-560,1988). An analgesimeter (Ugo Basile, Varese) was used for this purpose, which allows the mechanical hyperalgesia to be quantified. Furthermore, spontaneous pain was assessed using the incapacitance test, which evaluates variations in postural balance through the "Incapacitance" device (Linton Instrumentation, UK), a scale which simultaneously, but separately, measures the force imparted by each paw (Fernandes et al., Arthritis Res Ther. 2016 Jan 11;18:7).
# Briefly, rats were trained to stand on their hind legs in a box with an inclined plane (65° to the horizontal), placed above the "Incapacity" apparatus. […] The results were expressed in terms of "painful potency", defined as percentage inhibition (mean ± SEM) of inflammatory pain induced by CFA and calculated according to the formula: 100* (treatm-VEIC)/(CTRL-VEIC)."
# The effect on pain was analyzed using Generalized Linear Model (GLM) followed by post-hoc analysis based on Tukey-Kramer correction for multiple comparisons. The results of the analyses were expressed as mean ± standard error of the mean (SEM). […]
# [2] = system: inflammatory pain induced by sub-plantar injection of carrageenan; assay: Von Frey filaments, inflammatory pain induced by sub-plantar injection of carrageenan (Experiment 3); type: in vivo, adult male Sprague-Dawley rats
# Description: The experimental inflammatory pain model was induced through a sub-plantar injection of carrageenan (CAR) saline solution (0.1 mL of a 1% suspension of CAR in 0.85% saline). […] The PEA used in this experiment was in unprocessed (native) form. Von Frey filaments were used to evaluate pain, recording for each animal the mechanical tolerance threshold, i.e. the pressure (expressed in grams) endured before retracting the paw. The measurement took place using an analgesimeter (Ugo Basile, Comerio, Varese, Italy) and was conducted before the sub-plantar injection of the CAR and at the time of maximum damage (5 hours later).
# The effect on pain was analyzed using Generalized Linear Model (GLM) followed by post-hoc analysis based on Tukey-Kramer correction for multiple comparisons. […] All analyses were performed using SAS software, version 9.4 (SAS Institute, Cary, NC, USA). P value < 0.05 was considered significant.
structure (smiles),measurement,setting,value
"CCCCCCCCCCCCCCCC(=O)NCCO [PEA, N-palmitoylethanolamide]",Pr > F,[1]; PEA 5 mg/kg + diclofenac 3 mg/kg compared with diclofenac 3 mg/kg and PEA 10 mg/kg alone,"<0,0001"
same,Pr > F,"[1]; PEA 10 mg/kg, diclofenac 3 mg/kg","0,0084"
same,Pr > F,"[2]; 2x2 factorial analysis on tolerance threshold (Von Frey), native PEA 100 mg/kg, ibuprofen 5 mg/kg, PEA*Ibu = interaction (synergy)","0,0046"
same,mechanical tolerance threshold compared to the vehicle-treated group,"[2]; single oral administration 30 minutes before carrageenan, measured 5 hours later, unprocessed (native) PEA 100 mg/kg and/or ibuprofen 5 mg/kg",inactive dose
